Patent US4409207A, “Derivatives of clavulanic acid, a process for their preparation and their use” (Beecham Group Limited, priority 1978, dated 1983)

How the values were obtained:
E. Coli JT 39 = assay: standard MIC test of ampicillin with synergist, E. Coli JT 39; format: cell-based
Text: (§1) The synergist referred to hereinafter is sodium 9-O-carboxamidomethylclavulanate.

Proteus C889 = assay: standard MIC test of ampicillin with synergist, Proteus C889; format: cell-based; conditions: 0 μg/ml synergist (ampicillin alone)
Text: as §1

Staph. Russell = assay: standard MIC test of ampicillin with synergist, Staph. Russell; format: cell-based
Text: as §1

Kleb. E 70 = assay: standard MIC test of ampicillin with synergist, Kleb. E 70; format: cell-based
Text: as §1

E. coli JT 39 infection = E. coli JT 39 infection in mice, CD50 of amoxycillin with subcutaneous synergist; format: in vivo
[1] = toxic effects during testing at therapeutic doses in animals; format: in vivo
[2] = test system: Staph. Russell, Kleb. E 70, Proteus C889, E. Coli JT 39; assay: standard MIC tests, synergy statement; format: cell-based; conditions: with ampicillin
Text: as §1

[3] = 0 μg/ml synergist (ampicillin alone)
[4] = synergist alone, obtained in separate test

## CC1(C)S[C@@H]2[C@H](NC(=O)[C@H](N)c3ccccc3)C(=O)N2[C@H]1C(=O)O [Ampicillin, reference compound]
E. Coli JT 39; [3]
  MIC of Ampicillin: > 32 µg/mL
Proteus C889
  MIC of Ampicillin: > 32 µg/mL
Staph. Russell; [3]
  MIC of Ampicillin: > 32 µg/mL
Kleb. E 70; [3]
  MIC of Ampicillin: > 32 µg/mL

## NC(=O)COC/C=C1\O[C@@H]2CC(=O)N2[C@H]1C(=O)O [Example 2, Sodium 9-O-carboxamidomethylclavulanate]
E. coli JT 39 infection; compound of this example alone at 2 mg/kg×2
  effect of the compound alone on infection: no effect
[1]; in vivo
  overt toxic symptoms: No overt toxic symptoms were observed
[1]; therapeutic doses
  animal deaths due to toxic effects: did not cause animal deaths due to toxic effects
[2]
  synergy in standard MIC tests: demonstrated synergy
E. Coli JT 39; Escherichia coli, synergist alone, obtained in separate test
  MIC: 31 µg/mL
Staph. Russell; [4]
  MIC: 31 µg/mL
Kleb. E 70; [4]
  MIC: 31 µg/mL

## CC1(C)S[C@@H]2[C@H](NC(=O)[C@H](N)c3ccc(O)cc3)C(=O)N2[C@H]1C(=O)O [amoxycillin, reference compound]
E. coli JT 39 infection; amoxycillin alone
  CD50 of amoxycillin: greater than 500 mg/kg×2
